From patent EP0750511B1, “TREATING IN[…] THE ADMINISTRATION OF SPECIFIC SULFATASE ENZYMES AND/OR SULFATION INHIBITOR” (THE REGENTS OF THE UNIVERSITY OF CALIFORNIA, priority 1994, dated 1995)

How the values were obtained:
[1] = test system: GlyCAM-1; assay: [3H]-threonine metabolic labelling of lymph nodes (synthesis of protein core); type: cell-based, mouse; conditions: presence of chlorate
Description: (§1) To determine what effect chlorate had on the synthesis of the protein core of GlyCAM-1, we employed ^3H-threonine as a metabolic label. […] With or without chlorate treatment, two antibodies against the core protein of GlyCAM-1 precipitated broad bands that ran at ≈50K.
(§2) Mouse lymph nodes were labeled with 750 µCi of L-[3-^3H] threonine (Amersham) in 0.5 ml of threonine free-1/10 sulfate concentration-RPMI 1640 containing 25 mM HEPES for 4 h at 37°C in the absence or the presence of 10 mM sodium chlorate. Detergent lysates were boiled, precleared and subjected to precipitation with the indicated reagent as described in Example 1. Conditioned media were precleared and precipitated in parallel. The bead-bound material was analyzed on SDS-PAGE under reducing conditions with fluorography. In the anti-peptide antibody lanes, the ≈50K component was compressed by the immunoglobulin heavy chain.

[2] = test system: GlyCAM-1; assay: [35S]-sulfate metabolic labelling of lymph node organ culture; precipitation of GlyCAM-1 with peptide antibody or lectins, scintillation counting; type: cell-based, mouse
Description: (§3) Slices of mouse lymph nodes were cultured with ^35S-sulfate in the presence and absence of 10 mM sodium chlorate. Detergent lysates were prepared and subjected to precipitation with several reagents that recognize GlyCAM-1. […] Only a background level (0.9% of control) of radioactivity was measured in the precipitate from the chlorate-treated culture.
(§4) Pooled mesenteric and peripheral lymph nodes from ICR mice (80 mg wet weight per condition) were incubated with (a) 250 µCi of [^35-S]-sodium sulfate (ICN) or (b) 250 µCi of [5,6 ^3-H]-L-fucose (ICN) in the presence or absence of 10 mM Na chlorate (Aldrich) in 0.5 ml of RPMI-1640 with 25 mM HEPES (1/10 sulfate concentration) for 4 h at 37°C. Tissue was extracted with 1.2 ml of 2% Triton X-100 (Boehringer Mannheim) in Dulbecco's PBS containing 1 mM PMSF (Sigma), 1% (v/v) aprotinin (Sigma), 10 µg/ml of pepstatin (Boehringer Mannheim) and 0.02% NaN3 (lysis buffer) as described previously^11. The lysates were boiled 3 min and the supernatants were precleared with 100 µl of Protein A Sepharose (Zymed) overnight. Aliquots of the precleared supernatants were added to 10 µl beads of LEC-IgG-Protein A Sepharose Beads (30 µg LEC-IgG per 10 µl beads), rabbit anti-peptide 2-Protein A beads (10 µl serum per 10 µl beads), rabbit preimmune serum-Protein A beads (10 µl serum per 10 µl beads), Limax flavus agglutinin-Sepharose beads (20 µg protein per 10 µl beads), or Aleuria aurantia agglutinin-Sepharose beads (10 µg protein per 10 µl beads), and incubated for 4 h at 4°C on a rocker. The beads were washed in the lysis buffer (6 times), and the 1/14 aliquots of beads were saved for direct counting by a scintillation counting and the remainder of beads were solubilized in Laemmli sample buffer (without beta mercaptoethanol) and run by on a 10% acrylamide gel (nonreducing condition) with fluorography employing ENHANCE (New England Nuclear). Molecular weight markers (BioRad) were phosphorylase B (97.4 K), BSA (66.2 K), ovalbumin (45 K), carbonic anhydrase (31 K), soybean trypsin inhibitor (21.5 K). LEC-IgG and antiserum were coated on Protein A-Sepharose beads by rocking overnight at 4°C. Lectin beads were prepared by coupling Limax agglutinin (Calbiochem) and AAA (Boehringer Mannheim) to CNBr-activated Sepharose 4B (Sigman). Miller, R., Meth. Enzymol. 138:527-536 (1987).
Inhibition of GlyCAM-1 sulfation eliminates its interaction and/or binding with L-selectin. This conclusion was reached when aliquots of the same precipitates of Example 1, labeled with (a) [^35-S]-sulfate or (b) [^3-H]-fucose in the presence (dark bars) or absence (cross-hatched bars) of chlorate were subjected to scintillation counting. The percents shown in a given panel (a) (not shown) indicate the percent counts obtained in the presence of chlorate as compared to the absence of chlorate. The values for anti-peptide 2, Limax, and AAA were essentially the same, reflecting the overall reduction in sulfation. In an independent experiment, the corresponding values were: 6% (for LEC-IgG), 35.6% (for anti-peptide 2), 35.3% (for Limax).

[3] = test system: GlyCAM-1; assay: Label incorporation into GlyCAM-1 immunoprecipitated (CAM02 Ab) from conditioned medium of lymph node organ culture; type: cell-based, mouse
Description: (^3H-Gal)-labeled GlyCAM-1 was produced in mouse lymph node organ cultures as described in Examples 1-4 above. Undersulfated GlyCAM was generated by organ culture of murine lymph nodes in medium containing 10 mM Na-chlorate, a known inhibitor of sulfation. GlyCAM-1 was isolated from the conditioned media by immunoprecipitation with an antibody to a peptide sequence in the core protein of GlyCAM-1 (CAM02 Ab), as described in Examples 1-4 above. […] Desialylation of GlyCAM-1 was accomplished in all cases by treatment with Arthrobacter ureafacens sialidase (1.75 units/ml) in 120 mM Na acetate, pH 5.5 (18 h 37°C).

[4] = test system: L-selectin; assay: Precipitation of metabolically labelled GlyCAM-1 from lymph node cultures with L-selectin chimera (LEC-IgG); type: cell-based
Description: as §3
(§5) To determine directly whether the fucosylation of GlyCAM-1 was affected by chlorate, ^3H-fucose was employed as a metabolic precursor. […] However, while LEC-IgG precipitated GlyCAM-1 in the control culture, LEC-IgG precipitated only a background level of counts (7% of control) from the chlorate-treated culture and there was no detectable GlyCAM-1.
as §1, §4, §2

[5] = test system: CD34/Sgp90; assay: Interaction of CD34/Sgp90 with L-selectin after inhibition of its sulfation; type: cell-based; conditions: sulfation inhibited by chlorate treatment
Text: The complete loss of reactivity with LEC-IgG establishes the importance of sulfation for binding. […] CD34/Sgp90 is also a sulfated ligand of L-selectin.

[6] = test system: GlyCAM-1; assay: [3H]-fucose metabolic labelling of lymph node organ culture (fucosylation of GlyCAM-1); type: cell-based, mouse
Description: as §5
Pooled mesenteric and peripheral lymph nodes from ICR mice (80 mg wet weight per condition) were incubated with (a) 250 µCi of [^35-S]-sodium sulfate (ICN) or (b) 250 µCi of [5,6 ^3-H]-L-fucose (ICN) in the presence or absence of 10 mM Na chlorate (Aldrich) in 0.5 ml of RPMI-1640 with 25 mM HEPES (1/10 sulfate concentration) for 4 h at 37°C. Tissue was extracted with 1.2 ml of 2% Triton X-100 (Boehringer Mannheim) in Dulbecco's PBS containing 1 mM PMSF (Sigma), 1% (v/v) aprotinin (Sigma), 10 µg/ml of pepstatin (Boehringer Mannheim) and 0.02% NaN3 (lysis buffer) as described previously^11. The lysates were boiled 3 min and the supernatants were precleared with 100 µl of Protein A Sepharose (Zymed) overnight. […]

[7] = chlorate 10 mM in organ cultures of lymph nodes

[O-][Cl+2]([O-])O [chlorate, sodium chlorate]
rate of synthesis of the protein core of GlyCAM or CD34 [1]: did not affect
activity at 10000 µM ([2]; Mus musculus, [^35-S]-sulfate label, independent experiment, read-out: percent counts in the presence of chlorate as compared to the absence, Limax): 35.3%
activity at 10000 µM ([2]; Mus musculus, [^35-S]-sulfate label, independent experiment, read-out: percent counts in the presence of chlorate as compared to the absence, anti-peptide 2): 35.6%
activity at 10000 µM ([2]; Mus musculus, ^35S-sulfate label, 10 mM sodium chlorate, detergent lysates, scintillation counting, read-out: radioactivity immunoprecipitated by the peptide antibody): 12%
activity at 10000 µM ([2]; Mus musculus, ^35S-sulfate label, 10 mM sodium chlorate, detergent lysates, read-out: ^35S-sulfate precipitated by Aleuria aurentia lectin): 13.7%
activity at 10000 µM ([2]; Mus musculus, ^35S-sulfate label, 10 mM sodium chlorate, detergent lysates, read-out: ^35S-sulfate precipitated by Limax agglutinin): 11.4%
inhibition at 10000 µM ([2]; Mus musculus, chlorate 10 mM in organ cultures of lymph nodes, read-out: reduction of incorporation of ^35S-SO4 into GlyCAM and CD34): ~90%
activity at 10000 µM ([2]; Mus musculus, inferred from the ratio of counts precipitated by the peptide antibody, read-out: sulfate incorporation into GlyCAM-1): 10 to 15%
Binding of GlyCAM to a fucose-specific lectin (Aleuria aurantia agglutinin) [2, 7]: unchanged
Binding of GlyCAM to a sialic acid specific lectin (Limax agglutinin) [2, 7]: unchanged
[^3H]-galactose activity incorporated by GlyCAM, presence versus absence of chlorate ([3]; 10 mM Na-chlorate, 0.25 mCi input): about the same
incorporation of [^35S]-sulfate into GlyCAM ([3]; 10 mM Na-chlorate, 0.5 mCi input, control 1.75 x 10^6 cpm): 0.16 x 10^6 cpm
activity at 10000 µM ([3]; Mus musculus, 10 mM Na-chlorate, 0.5 mCi input, read-out: incorporation of [^35S]-sulfate into GlyCAM): 10%
[^3H]-galactose activity incorporated by GlyCAM ([3]; presence or absence of chlorate, 0.25 mCi input): 2 x 10^6 cpm
percent counts in the presence of chlorate as compared to the absence, LEC-IgG ([4]; [^35-S]-sulfate label, independent experiment, 10000 µM): 6%
counts precipitated by LEC-IgG ([4]; ^3H-fucose label, chlorate-treated culture, 10000 µM): 7 % of control
GlyCAM-1 component precipitated by LEC-IgG from conditioned medium ([4]; ^3H-threonine label, chlorate present during the culture): did not react with any components
radioactivity in the LEC-IgG precipitate ([4]; ^35S-sulfate label, 10 mM sodium chlorate, detergent lysates): 0.9 % of control
GlyCAM-1 band precipitated by LEC-IgG (SDS-PAGE) ([4]; ^35S-sulfate label, chlorate-treated culture, strong band in control): failed to precipitate a detectable GlyCAM-1 band
binding to L-selectin (GlyCAM and CD34) [4, 7]: completely eliminated
binding of LEC-IgG to GlyCAM ([4]; culture in chlorate): completely abrogated
ability of CD34/Sgp90 to interact with L-selectin [5]: drastically inhibited
cpm precipitated by the peptide antibody ([6]; ^3H-fucose label, detergent lysates, chlorate versus control cultures): approximately the same number of cpm
level of fucosylation (incorporation of [^3H]-fucose into GlyCAM) ([6]; presence of chlorate): not affected
